From patent publication US20040147595A1, “Biofilm degrading or sloughing compositions and methods” (priority 2001, published 2004)

Assays:
[1] = system: bacterial growth; assay: Bacterial growth inhibition at the concentrations tested in the quorum sensor assay; type: cell-based
Text: The natural compound 2 has an IIX40 0.75 where as compound 30 and […] have IIX40 of 0.01 and 0.51 respectively.

[2] = system: OHHL induced LuxR dependent expression of GFP; assay: Quantitative furanone inhibition of the LuxR-PluxI-gfp(ASV) quorum sensor in E. coli MT102 (pJBA89); type: cell-based, Escherichia coli; conditions: gradient of furanone concentration lowering RFU to 40% versus OHHL concentration (5-100 nM)
Text: To analyse the AHL antagonist activity of the halogenated furanones we tested the compounds for their ability to inhibit 3oxo-C6-HSL (OHHL) induced LuxR dependent expression of green fluorescent protein (GFP) from a Pgfp(ASV) fusion in the AHL monitor strain E. coli MT102 harbouring pJBA89 (Andersen et al., 2001).
The medium used is minimal ABT containing 0.5% glucose and 0.5% Casamino Acids. In growing cultures of the AHL monitor strain E. coli Mt102 (pJBA89) encoding […] and a P-gfp(ASV) fusion, GFP(ASV) is produced immediately upon OHHL addition specifically from the LuxR controlled P-gfp(ASV) fusion gene. The sensitivity is high (responsive to as little as 3 nm OHHL) and due to the instability built into the GFP (ASV) variant there is no background production of green fluoroscence (Andersen et al., 2001). GFP expression from the AHL monitor strain E. coli MT102 (pJBA89) and the control strain MT102 harbouring the lacl^q, Plas-gfp(ASV) IPTG inducible expression system pMH197 was quantified in the following way. Overnight cultures were diluted four fold in fresh medium and incubated for one hour at 30° C. while OHHL and furanone compounds in the required concentrations were mixed in the wells of microtiter dishes. […] When absolute values were required, green fluoroscence was measured on a fluorometer (model RF-1501; Shimadzu, Tokyo, Japan) act at an excitation wavelength of 475 nm and emission detection at 515 nm. To establish a correlation between the colour code of the ARGUS-50 captured images and green fluorescence, both colour and relative fluorescence units (RFU), were determined for a dilution series of an E. coli MT102 (pJBA89) culture which had been incubated with […]. […]
From the second plot, the furanone concentration reducing the relative activity to 40% (ID60) is determined for each OHHL concentration. […]
To enable easy comparison of the strength of the furanones, an inhibition index (IIX40) is calculated for each furanone compound. […]

[3] = system: OHHL induced LuxR dependent expression of GFP; conditions: E. coli MT102 (pJBA89); cited from earlier work
[4] = system: V. fisheri lux quorum sensing system (LuxR); assay: V. fisheri luxR PluxI-gfp(ASV) reporter in PAO-JP2 biofilm; type: cell-based, Pseudomonas aeruginosa; conditions: 250 nM OHHL
Protocol: P. aeruginosa biofilms. Biofilms were grown at 30° C. in three-dimensional flow cells (Christensen et al., 1999) with individual channel dimensions of 0.3×4×40 mm supplied With ABt minimal medium supplemented with 2% LB. The flow system was assembled and prepared as described by Christensen et al. (1999). The substratum consisted of a microscope glass coverslip (Knittel 24×50 mm st1, Knittel Glaser, Braunschweig, Germany). Cultures for inoculation of the flow channels were prepared in the following way: P. aeruginosa strains were streaked on LB plates with the appropriate antibiotics and incubated for 24 h at 37° C. From each plate a single colony was used for inoculation of 10 ml ABt with 10% LB. The cultures were grown at, 30° C. for 18 h before they were diluted to an OD600 nm of 0.1 in sterile 0.9% NaCl and used for inoculation of the flow channels. Medium flow was kept at a constant rate of 3 mL/h, equivalent to a mean flow velocity of 0.7 mm/s, using a Watson-Marlow 205S peristaltic pump (Watson-Marlow, Falmouth, England). Biofilms were grown for 24 hours before being shifted to media containing AHL and furanone.
Scanning confocal laser microscopy (SCLM). Microscopic inspection and image acquisition were performed an a scanning confocal laser microscope (model TCS4D, Leica Lasertechnik GmbH, Heldelberg, Germany) equipped with a 63×/1.32-0.6 oil objective. The microscope was equipped with a motorized and programmable xy-stage, which was used for monitoring single colonies during the biofilm experiments. At the beginning of each online experiment, the microscope was programmed to track single randomly selected microcolonies; the sensitivity of photo multipliers and the laser intensity were adjusted and thereafter kept constant through out the duration of the experiments. Image scanning was carried out using the 488 nm and 568 nm lines of an Ar/Kr laser for detection of Gfp and Rfp, respectively. Visualization of captured images was performed using the IMARIS software package (Bitplane AG, Zúrich, Switzerland) running on a Silicon Graphics Indigo 2 workstation (Silicon Graphics, Mountain View, Calif. USA).
Repression of LuxR-activated quorum sensing controlled gene transcription. We speculated that the AHL-antagonstic properties of furanone 56 was specific to the P. aeruginosa las quorum sensing system. To test this, a previously published quorum sensing reporter based on the Vibro fisherf luxR gene and Pluxl-gfp(ASV) (Anderson at al, 2001; Wu et al, 2000) was transferred to PAO-JP2.

Row | SMILES | concentration slightly above which growth was inhibited [1] | inhibition index (IIX40) [2] | lowest OHHL concentration the monitor strain responds to [3] | green fluorescence of biofilm [4]
1 | O=C1C=C(Br)/C(=C/Br)O1 [Compound 30] | above 10 nm | 0.01 mole of furanone per mmole of | – | –
2 | CCCC(=O)CC(=O)N[C@H]1CCOC1=O [OHHL, N-[3-oxo-hexanoyl]-L-homoserine lactone, reference compound] | – | – | 3 nm | developed within one hour
